Laboratory results reported in patent publication US5840684A, “Glycopeptide antibiotic derivatives” (Eli Lilly and Company, priority 1995, dated 1998).
In brackets after ≈: the same amount, converted by molar mass. Like-named read-outs stand apart in the source and are kept apart here.

Columns and labels:
[1] = system: Lactobacillus confusus; assay: agar dilution MIC, lactic acid bacteria; format: cell-based
[2] = system: vancomycin-resistant enterococci; assay: broth micro-dilution, mean geometric MIC; format: cell-based, Enterococcus faecium and Enterococcus faecalis
[3] = system: Pediococcus acidilacti; assay: agar dilution MIC, lactic acid bacteria; format: cell-based
[4] = system: Staphylococcus aureus 447; assay: broth micro-dilution MIC; format: cell-based
Description: (§1) The MIC's were determined using a standard broth micro-dilution assay.

[5] = system: Staphylococcus aureus 489; assay: broth micro-dilution MIC; format: cell-based
Description: as §1

[6] = system: Entercoccus faecium 276; assay: broth micro-dilution MIC; format: cell-based
Description: as §1

[7] = system: Staphylococcus aureus SA1199; assay: broth micro-dilution MIC; format: cell-based
Description: as §1

[8] = system: Staphylococcus aureus X400; assay: broth micro-dilution MIC; format: cell-based
Description: as §1

[9] = system: Staphylococcus aureus SA1199A; assay: broth micro-dilution MIC; format: cell-based
Description: as §1

[10] = system: Entercoccus faecium 180-1; assay: broth micro-dilution MIC; format: cell-based
Description: as §1

[11] = system: Staphylococcus aureus X778; assay: broth micro-dilution MIC; format: cell-based
Description: as §1

[12] = system: Staphylococcus aureus 446; assay: broth micro-dilution MIC; format: cell-based
Description: as §1

[13] = system: Streptococcus pyogenes C203; assay: broth micro-dilution MIC; format: cell-based
Description: as §1

[14] = system: Staphylococcus aureus 491; assay: broth micro-dilution MIC; format: cell-based
Description: as §1

[15] = system: Leuconostoc citreum; assay: agar dilution MIC, lactic acid bacteria; format: cell-based
[16] = system: Streptococcus pyogenes; assay: mouse protection, experimentally-induced infection; format: in vivo; conditions: mice infected with Streptococcus pyogenes, two doses
[17] = system: Leuconostoc lactis; assay: agar dilution MIC, lactic acid bacteria; format: cell-based
[18] = system: Staphylococcus aureus SA1199B; format: cell-based
Description: as §1

[19] = system: Staphylococcus aureus S13E; format: cell-based
Description: as §1

[20] = system: Streptococcus pneumoniae; assay: mouse protection, experimentally-induced infection; format: in vivo; conditions: mice infected with Streptococcus pneumoniae, two doses
[21] = system: Leuconostoc mesenteroides; assay: agar dilution MIC, lactic acid bacteria; format: cell-based
[22] = system: Escherichia coli EC14; assay: broth micro-dilution MIC; format: cell-based
Description: (§2) The formula I compounds have in vitro and in vivo activity against Gram-positive pathogenic bacteria. The MIC's were determined using a standard broth micro-dilution assay.

[23] = system: Enterococcus gallinarum 245; assay: broth micro-dilution MIC; format: cell-based
Description: as §2

[24] = system: Entercoccus faecium 2041; assay: broth micro-dilution MIC; format: cell-based
Description: as §2

[25] = system: Staphylococcus haemolyticus 415; assay: broth micro-dilution MIC; format: cell-based
Description: as §2

[26] = system: Entercoccus faecium 180; assay: broth micro-dilution MIC; format: cell-based
Description: as §2

[27] = system: Staphylococcus haemolyticus 105; assay: broth micro-dilution MIC; format: cell-based
Description: as §2

[28] = system: Streptococcus pneumoniae P1; assay: broth micro-dilution MIC; format: cell-based
Description: as §2

[29] = system: Staphylococcus epidermidis 270; assay: broth micro-dilution MIC; format: cell-based
Description: as §2

[30] = system: Pediococcus pentosaceus; assay: agar dilution MIC, lactic acid bacteria; format: cell-based
[31] = system: vancomycin-susceptible enterococci; assay: broth micro-dilution, mean geometric MIC; format: cell-based, Enterococcus faecium and Enterococcus faecalis
[32] = system: Leuconostoc pseudomesenteroides; assay: agar dilution MIC, lactic acid bacteria; format: cell-based
[33] = system: Stapylococcus aureus; assay: mouse protection, experimentally-induced infection; format: in vivo; conditions: mice infected with Stapylococcus aureus, two doses
[34] = system: Haemophilus influenzae RD; assay: broth micro-dilution MIC; format: cell-based; conditions: Haemophilus influenzae
Description: as §2

[35] = enterococci, 24-hour incubation

## CNC(CC(C)C)C(=O)NC1C(=O)NC(CC(N)=O)C(=O)NC2C(=O)NC3C(=O)NC(C(=O)NC(C(=O)O)c4cc(O)cc(O)c4-c4cc3ccc4O)C(OC3CC(C)(N)C(O)C(C)O3)c3ccc(c(Cl)c3)Oc3cc2cc(c3OC2OC(CO)C(O)C(O)C2OC2CC(C)(NCc3ccc(Oc4ccccc4)cc3)C(O)C(C)O2)Oc2ccc(cc2Cl)C1O (centres unmarked) [Compound 4, p-phenoxybenzyl·A82846B]
[1]; Lactobacillus confusus, brain-heart infusion agar
  MIC: 32 µg/mL (≈ 18 µM)
[2]; [35]
  mean geometric MIC, Vancomycin Resistant Strains: 0.50 µg/mL
[3]; Pediococcus acidilacti (mean of 10), brain-heart infusion agar
  MIC: 7.5 µg/mL (≈ 4.23 µM)
[4]
  MIC: 0.25 µg/mL (≈ 0.141 µM)
[5]
  MIC: ≤ 0.06 µg/mL
[6]
  MIC: ≤ 0.06 µg/mL
[7]
  MIC: ≤ 0.06 µg/mL
[8]
  MIC: ≤ 0.06 µg/mL
[9]
  MIC: ≤ 0.06 µg/mL
[10]
  MIC: ≤ 0.06 µg/mL
[11]
  MIC: ≤ 0.06 µg/mL
[12]
  MIC: ≤ 0.06 µg/mL
[13]
  MIC: ≤ 0.06 µg/mL
[14]
  MIC: ≤ 0.06 µg/mL
[15]; brain-heart infusion agar
  MIC: 128 µg/mL (≈ 72.1 µM)
[16]
  ED50: 0.012 mg/kg/2
[17]; Leuconostoc lactis (mean of 2), brain-heart infusion agar
  MIC: 16 µg/mL (≈ 9.02 µM)
[18]
  MIC: ≤ 0.06 µg/mL
[19]
  MIC: ≤ 0.06 µg/mL
[20]
  ED50: 0.036 mg/kg/2
[21]; Leuconostoc mesenteroides (mean of 4), brain-heart infusion agar
  MIC: 16 µg/mL (≈ 9.02 µM)
[22]
  MIC: > 64 µg/mL
[23]; Enterococcus gallinarum 245
  MIC: ≤ 0.06 µg/mL
[24]; Entercoccus faecium 2041
  MIC: ≤ 0.06 µg/mL
[25]
  MIC: 0.5 µg/mL (≈ 0.282 µM)
[26]; Entercoccus faecium 180
  MIC: 0.125 µg/mL (≈ 0.0704 µM)
[27]
  MIC: 0.5 µg/mL (≈ 0.282 µM)
[28]
  MIC: ≤ 0.06 µg/mL
[29]
  MIC: ≤ 0.06 µg/mL
[30]; Pediococcus pentosaceus (mean of 2), brain-heart infusion agar
  MIC: 16 µg/mL (≈ 9.02 µM)
[31]; [35]
  mean geometric MIC, Vancomycin Sensitive Strains: 0.062 µg/mL
[32]; brain-heart infusion agar
  MIC: 32 µg/mL (≈ 18 µM)
[33]
  ED50: 0.36 mg/kg/2

## CN[C@H](CC(C)C)C(=O)N[C@H]1C(=O)N[C@@H](CC(N)=O)C(=O)N[C@H]2C(=O)N[C@H]3C(=O)N[C@H](C(=O)N[C@H](C(=O)O)c4cc(O)cc(O)c4-c4cc3ccc4O)[C@H](O)c3ccc(c(Cl)c3)Oc3cc2cc(c3O[C@@H]2O[C@H](CO)[C@@H](O)[C@H](O)[C@H]2O[C@H]2C[C@](C)(N)[C@H](O)[C@H](C)O2)Oc2ccc(cc2Cl)[C@H]1O [vancomycin, reference compound]
[1]; Weissella confusa
  MIC: 1020 µg/mL (≈ 707 µM)
[2]; 24 h, read-out: mean geometric MIC, Vancomycin Resistant Strains
  MIC: 282 µg/mL (≈ 195 µM)
[3]; Pediococcus
  MIC: 891 µg/mL (≈ 615 µM)
[5]
  MIC: 0.125 µg/mL (≈ 0.0863 µM)
[9]
  MIC: 0.125 µg/mL (≈ 0.0863 µM)
[15]
  MIC: > 1020 µg/mL
[16]
  ED50: 0.8 mg/kg/2
[17]; Leuconostoc lactis
  MIC: 1020 µg/mL (≈ 707 µM)
[20]
  ED50: 1.1 mg/kg/2
[21]; Leuconostoc mesenteroides
  MIC: 1020 µg/mL (≈ 707 µM)
[22]
  MIC: > 64 µg/mL
[23]; Enterococcus gallinarum, GALLINARUM
  MIC: 4 µg/mL (≈ 2.76 µM)
[24]
  MIC: 2 µg/mL (≈ 1.38 µM)
[34]
  MIC: > 64 µg/mL
[25]
  MIC: 8 µg/mL (≈ 5.52 µM)
[26]
  MIC: > 64 µg/mL
[27]
  MIC: 16 µg/mL (≈ 11 µM)
[28]
  MIC: 0.25 µg/mL (≈ 0.173 µM)
[29]
  MIC: 16 µg/mL (≈ 11 µM)
[30]; Pediococcus pentosaceus
  MIC: 1020 µg/mL (≈ 707 µM)
[31]; 24 h, read-out: mean geometric MIC, Vancomycin Sensitive Strains
  MIC: 3.9 µg/mL (≈ 2.69 µM)
[32]
  MIC: > 1020 µg/mL
[33]
  ED50: 1.2 mg/kg/2
